One experiment deals with RnDYRK1A. Kind of experiment: DYRK1A kinase assay. Format: biochemical, Rn (rat). To be noted: SI = IC50 kinase X/IC50 Haspin. How it is done: (§1) Values are IC50 expressed in µM and calculated from dose–response curves (each point on the curves was performed in triplicate). Selectivity indexes (SI; in brackets) are calculated as follows: SI = IC50 kinase X/IC50 Haspin. ND: not determined. *IC50 values obtained using the ADP-Glo methodology (see Experimental section, Supplementary Material). […]
The reaction was carried out as described in general procedure A using 4 (0.150 g, 0.58 mmol, 1 equiv.), 2-aminopyrimidine-5-boronic acid (0.122 g, 0.88 mmol, 1.5 equiv.) and Cs2CO3 (0.575 g, 1.75 mmol, 3 equiv.). The […]
The reaction was carried out as described in general procedure A using 4 (0.100 g, 0.39 mmol, 1 equiv.), 1-naphthaleneboronic acid (0.083g, 0.47 mmol, 1.2 equiv.) and Cs2CO3 (0.381 g, 1.17 mmol, 3 equiv.). The crude […]
Recombinant protein kinases were expressed and purified from E. coli (HsHaspin kinase domain aa470-798, HsCdk5/p25, RnDYRK1A kinase domain aa1-499, HsPIM1, MmCLK1) or baculovirus/Sf9 cells (HsCdk2/Cyclin A, HsCdk9/Cyclin T). […] The wet filter-bound radioactivity was determined in the presence of 20 µl scintillation fluid (GE healthcare) with a TopCount® Scintillation and Luminescence Counter (PerkinElmer). IC50 values were calculated from dose-response curves […]

The test system of the next experiment is U-2 OS cells. Nature of the experiment: Cell cycle analysis by flow cytometry (propidium iodide). The following applies: 2.5 µM, 24 h, U-2 OS.
The next experiment addresses T1, HsHaspin (Homo sapiens, UniProt Q8TF76).
T1 construct: aa470-798; made in house; host or cells: E. coli
T1 sequence (Q8TF76 470-798): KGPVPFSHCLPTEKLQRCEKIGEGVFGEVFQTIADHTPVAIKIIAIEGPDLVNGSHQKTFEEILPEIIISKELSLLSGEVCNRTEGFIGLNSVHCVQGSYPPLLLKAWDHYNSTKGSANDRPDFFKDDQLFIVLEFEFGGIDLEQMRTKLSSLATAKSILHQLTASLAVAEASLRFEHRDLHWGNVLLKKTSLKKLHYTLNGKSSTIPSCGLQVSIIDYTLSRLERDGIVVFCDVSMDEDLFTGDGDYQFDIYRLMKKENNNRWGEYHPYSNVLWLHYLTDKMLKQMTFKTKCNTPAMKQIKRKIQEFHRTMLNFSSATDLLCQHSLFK
Nature of the experiment: Recombinant Haspin kinase assay ([γ-33P]ATP, 15 µM ATP; some values ADP-Glo). In kind it is biochemical. To be noted: recombinant HsHaspin, in vitro. On the procedure:
as §1
A, HsCdk9/Cyclin T). Native SscCK1δ /ε and SscGSK3α/β were purified from pig brain whereas HsPlk1, HsCdk1 and HsAurora B were purchased from ProQinase and SignalChem respectively. Kinase assays were performed in […]
mCi/ml; PerkinElmer) in a final volume of 30 µl as previously reported 51. After 30 min incubation at 30°C, the reaction mix was spotted onto GE healthcare P81 phosphocellulose paper using a FilterMate Harvester (PerkinElmer), and the filter was extensively washed with a 1% phosphoric acid solution. The wet filter-bound radioactivity was determined in the presence of 20 µl scintillation fluid (GE healthcare) with a TopCount® Scintillation and Luminescence Counter (PerkinElmer). IC50 values were calculated from dose-response curves […]
Kinase activities using the ADP-Glo methodology (ADP-Glo Kinase Assay; Promega) were assayed according to the assay described in Nguyen et al. 52 and Ibrahim et al. 53. […]
(In general: ADP-Glo turns the ADP formed in a reaction into a luminescent signal.)

Another experiment deals with HCT116. Nature of the experiment: Cell viability, monolayer (2D), MTS assay. In kind it is cell-based. To be noted: Homo sapiens, HCT-116, 48 h. On the technique in general: Tetrazolium dyes change colour on reduction, which living cells bring about.
In a further experiment the test system is HBL100. Nature of the experiment: Cell viability, monolayer (2D), MTS assay. To be noted: Homo sapiens, HBL-100, 48 h. Format: cell-based.

Protocol for U-2 OS cells: Figure 6. […] DNA content was measured by flow cytometry and representative profiles are shown. (B) quantification of the proportion of cells in each phase of the cell cycle from the experiment described in (A). Results are mean percentage (n = 3 independent experiments).
Cellular evaluation methods
All media were supplemented with 10% fetal calf serum (unless overwise specified) and 2 mM L-glutamine and cells were cultured
F68-pluronic acid. Cells were fixed for 2h in ice-cold ethanol, then washed twice in PBS containing 0.1% F68-pluronic acid, centrifuged at 200 g and resuspended in a PBS buffer containing 1% Triton, 100 µg/ml RNase A (Thermo Scientific) and 40 µg/ml propidium iodide (Life Technologies). DNA content was determined using a FACS Canto II (BD) and the data were analyzed using FCS Express Cytometry software (De Novo Software).
Twenty thousand events were collected in each run.

A word on the IC50: it is the point on the concentration scale where inhibition reaches its midpoint. Broadly, the EC50 is the concentration needed to bring the measured effect to its halfway point. Read a high EC50 as a less potent agent. Regarding `c1cc2[nH]ncc2cc1-c1cnc2ccc(OC[C@@H]3CNCCO3)nn12` [Compound 21], in the experiment with RnDYRK1A, the “selectivity for DYRK1A vs Haspin” value was 50 fold. For the same compound, the “cells in G2/M phase (% of cell total population)” value in the experiment with U-2 OS cells (DMSO control 12.8%) stood at 21.4%. The “cells in S phase (% of cell total population)” value in the experiment with U-2 OS cells (DMSO control 51.9%) turned out to be 32%. The IC50 at HsHaspin was 0.006 µM. The EC50 in the experiment on HCT116 and in the experiment with HBL100 was greater than 10 µM in each case.

For the origin of these results see PMC7580722, “Design of new disubstituted imidazo[1,2-b]pyridazine derivatives as selective Haspin inhibitors. Synthesis, binding mode and anticancer biological evaluation” (Journal of Enzyme Inhibition and Medicinal Chemistry, 2020).
